Consider one molecule from US20250255978A1, “DRUG-DELIVERY NANOPARTICLES AND TREATMENTS FOR DRUG-RESISTANT CANCER” (Cedars-Sinai Medical Center, priority 2016, published 2025).

What all share (assay): Cell viability assay (MTS), relative cell survival
Holding throughout (conditions): dose range, 4 h + 44 h incubation

The subject of experiment [1] is BT474-TR (trastuzumab-resistant human breast cancer) cells. It counts as cell-based. How it is done:
(§1) The cells per well were plated in black-walled, clear-bottom, 96-well plates. […] Plates were rocked for 4 hours at 37° C. and 5% CO2 and then 60 μL of complete media was added to each well to bring the total volume to 100 μL and the incubation was continued, without rocking, for 44 hours at 37° C. and 5% CO2. At the conclusion of the incubation, relative cell viability was determined via MTS assay (Promega) according to manufacturer's instructions. Specifically, the media was removed from the wells and 100 μL of fresh complete media was added to each well. 20 μl of the prepared MTS reagent was added to each well. The plate was then incubated with rocking at 37° C. and 5% CO2 and readings were taken of the plate at 1, 2, and 3 hours at 490 nm using a spectrophotometer.
(§2) The cells per well were plated in black-walled, clear-bottom, 96-well plates. […] At the conclusion of the incubation, relative cell viability was determined via MTS assay (Promega) according to manufacturer's instructions. […]
as §2

Experiment [2] has as its system JIMT1 (human breast cancer cells from a patient naturally resistant to trastuzumab). It is filed as cell-based. As for the experimental part: as §1, with “Relative cell survival after exposure to the described compositions was measured using a cell viability assay. 15,000, 10,000, or 8,000 cells” for “The cells”, “spectrophotometer. […]” for “spectrophotometer.”
The concentration of Eos-001 is reported in μM doxorubicin, and the concentration of lapatinib is reported in μM lapatinib. […] At the conclusion of the incubation, relative cell viability was determined via MTS assay (Promega) according to manufacturer's instructions. […] The plate was then incubated with rocking at 37° C. and 5% CO2 and readings were taken of the plate at 1, 2, and 3 hours at 490 nm on spectrophotometer. […]

The subject of experiment [3] is SKBR3 (human breast cancer) cells. It is filed as cell-based. As for the experimental part:
as §1
(§3) To verify the contribution of HER3 targeted toxicity of the Eos-001 nanoparticles, a HER3 peptide was used as a competitive inhibitor. The HER3 peptide was pre-incubated with the Eos-001 particles, which bound the heregulin targeting domain. […]
as §2

For experiment [4], the system named is SKBR3-TR (trastuzumab resistant breast cancer) cells. It counts as cell-based, human. How it is done: as §1, §3, §2
Experiment [5] deals with BT474 (human breast cancer) cells. It is filed as cell-based. As for the experimental part:
Plates were rocked for 4 hours at 37° C. and 5% CO2 and then 60 μL of complete media was added to each well to bring the total volume to 100 μL and the incubation was continued, without rocking, for 44 hours at 37° C. and 5% CO2. At the conclusion of the incubation, relative cell viability was determined via MTS assay (Promega) according to manufacturer's instructions. Specifically, the media was removed from the wells and 100 μL of fresh complete media was added to each well. 20 μl of the prepared MTS reagent was added to each well. The plate was then incubated with rocking at 37° C. and 5% CO2 and readings were taken of the plate at 1, 2, and 3 hours at 490 nm using a spectrophotometer.
The cells per well were plated in black-walled, clear-bottom, 96-well plates. […] At the conclusion of the incubation, relative cell viability was determined via MTS assay (Promega) according to manufacturer's instructions. […] The plate was then incubated with rocking at 37° C. and 5% CO2 and readings were taken of the plate at 1, 2, and 3 hours at 490 nm using a spectrophotometer. […]
as §2

Each structure is given as a SMILES string.

As for `CS(=O)(=O)CCNCc1ccc(-c2ccc3ncnc(Nc4ccc(OCc5cccc(F)c5)c(Cl)c4)c3c2)o1` [lapatinib], in experiment [1], the “killing of BT474-TR cells” value is “slightly effective”. In experiment [2], the “effect on survival / killing of JIMT1 cells” value is recorded as “unable to kill”. Moreover, the “killing of SKBR3 cells” value in experiment [3] is recorded as “similarly effective”. The “killing of SKBR3-TR cells” value in experiment [4] is reported as “slightly effective”. The “effect on survival / killing of BT474 cells” value in experiment [5] is “similarly effective”.
